Marks after values point to notes of the source that are not given here.
System: ZR75-1 cells
Assay: Immuno-staining of protein expression and protein phosphorylation, ZR75-1 cells
Format: cell-based
Set-up: ATM level / P-317 (ULK1) level / Beclin1 level / ATG5 level / HDAC8 level / BIM level: scale not given here
Conditions: ZR75, 3 h
Method: ZR75-1 and MCF7 cells were treated with vehicle control, GZ17-6.02, Palbociclib or the drugs combined for 3 hours and for 6 hours. Cells were fixed in place and immuno-staining performed with in house validated antibodies to detect protein expression and protein phosphorylation.

With `CC(=O)c1c(C)c2cnc(Nc3ccc(N4CCNCC4)cn3)nc2n(C2CCCC2)c1=O` [PALBO, Palbociclib] the AKT level was 100, the AMPKa level was 100 and the ATG5 level was 107. The ATG13 level was 101, the ATM level was 99 and the BAK level was 107. It also gave a BAX level of 106, a BCL-XL level of 94 and a BIM level of 109. It also gave a Beclin1 level of 112, a CD95 level of 100 and a CHOP level of 107. The “Cyclin D level” value was 108, the “Cyclin E level” value was 103 and the ER level was 100. The ERBB1 level was 99, the ERBB2 level was 99 and the ERBB3 level was 100. For the same compound, the ERK1/2 level was 100, the ERK2 level was 100 and the ERRB4 level was 100. It also gave an FAS-L level of 108, a GRP78 level of 108 and an HDAC1 level of 101. The HDAC2 level was 99, the HDAC3 level was 96 and the HDAC4 level was 100. The HDAC5 level was 98, the HDAC6 level was 99 and the HDAC7 level was 101. It also gave an HDAC8 level of 100, an HDAC9 level of 101 and an HDAC10 level of 98. For the same compound, the HDAC11 level was 96, the IDO1 level was 96 and the JAK2 level was 100. For the same compound, the JNK1/2 level was 100, the LATS1/2 level was 98 and the MCL1 level was 96. For the same compound, the MHCA level was 102, the NEDD4 level was 100 and the NFkB level was 100. The ODC level was 100, the “P-89 (TAZ) level” value was 101 and the “P-109 (YAP) level” value was 101. The “P-127 (YAP) level” value was 100, the “P-317 (ULK1) level” value was 112 and the “P-397 (YAP) level” value was 98. The “P-757 (ULK1) level” value was 96, the “P-909 (LATS1/2) level” value was 98 and the “P-1079 (LATS1/2) level” value was 101. The P-AMPKa level was 115#, the P-ATG13 level was 113# and the P-ATM level was 106. The P-ERBB1 level was 101, the P-ERBB2 level was 96 and the P-ERBB3 level was 115#. The P-ERBB4 level was 107, the P-ERK level was 97 and the P-JAK2 level was 100. For the same compound, the P-JNK level was 90, the P-KIT level was 100 and the P-MET level was 101. It also gave a P-NFkB level of 100, a P-PDGFRb level of 100 and a P-PERK level of 111. The “P-S2448 (mTOR) level” value was 97, the “P-S2481 (mTOR) level” value was 96 and the “P-T308 (AKT) level” value was 106. The “P-Y694 (STAT5) level” value was 100, the “P-Y705 (STAT3) level” value was 99 and the P-eIF2a level was 110. The P-p38 level was 101, the “P-p70 T389 level” value was 100 and the PD-L1 level was 100. The PD-L2 level was 100, the PDGFRb level was 100 and the PERK level was 101. It also gave a PP1 level of 99, a PTEN level of 101 and an STAT3 level of 100. For the same compound, the STAT5 level was 100, the TAZ level was 100 and the ULK1 level was 100. For the same compound, the “Y416 (c-SRC) level” value was 101, the “Y527 (c-SRC) level” value was 99 and the YAP level was 98. For the same compound, the c-KIT level was 100, the c-MET level was 100 and the c-SRC level was 101. It also gave an eIF2a level of 99, a mTOR level of 101 and a p38 level of 100. For the same compound, the “p70 S6K level” value was 100 and the P-ERBB3 level (listed as Palbo) was 115.

Reference: patent publication US20220008359A1, “COMBINATION ANTI-CANCER PRODUCTS AND METHODS” (priority 2020, published 2022)
